For this assay, the target named is T1, O. sativa APL (Q10MW4) macrodomain (Oryza sativa, UniProt B8ALM5).
T1 construct: gene OsI_11122
As to the kind of experiment: X-ray crystal structure of the complex (co-crystallisation). As to conditions: 2 mM ADPr added to protein; crystals in 0.1 M SPG buffer pH 4, 25% PEG 1500, 20 °C; macrodomain binding pocket.

From PMC5087659, “The role of ADP-ribosylation in regulating DNA interstrand crosslink repair” (Journal of Cell Science, 2016) come the findings set out here.

T1 sequence (B8ALM5 entry or part of it, one chain of several): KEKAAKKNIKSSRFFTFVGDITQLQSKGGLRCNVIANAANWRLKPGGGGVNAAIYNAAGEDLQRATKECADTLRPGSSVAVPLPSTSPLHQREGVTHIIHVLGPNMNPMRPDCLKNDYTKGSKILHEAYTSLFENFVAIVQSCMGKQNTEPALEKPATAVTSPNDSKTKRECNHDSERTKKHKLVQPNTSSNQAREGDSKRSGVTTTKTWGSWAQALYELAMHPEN

For `Nc1ncnc2c1ncn2[C@@H]1O[C@H](COP(=O)(O)OP(=O)(O)OC[C@H]2OC(O)[C@H](O)[C@@H]2O)[C@@H](O)[C@H]1O` (stereo partly shown) [ADP-ribose], the “X-ray crystal structure of the complex (co-crystallisation)” value is on record as “We were able to obtain the O. sativa macrodomain in a complex with ADP-ribose”.
